{"source": "patent US20260305620A1", "about": "“NOVEL INSECTICIDAL MIXTURES FOR CONTROLLING AND PROTECTING CROPS” (ADAMA MAKHTESHIM LTD., priority 2023, published 2026)", "system": "Aphis gossypii", "assay": "Mortality of Aphis gossypii adults + progeny on sprayed pepper leaf disks; synergy/antagonism of garlic extract mixtures by Colby's formula", "assay_type": "in vivo, Aphis gossypii (cotton aphid)", "conditions": "for mortality at 0.2 ppm: 0.2 ppm ai; for mortality at 0.1 ppm: 0.1 ppm ai; for mortality at 0.8 ppm: read-out: Mortality Observed, alone, 0.8 ppm ai; for mortality at 5 ppm: read-out: Mortality Observed, alone, 5 ppm ai", "experimental": "Evaluating the synergistic or antagonistic effects of garlic extract and other insecticides on Aphis gossypii in pepper crop.\nPepper plants of Makko F1 cv, obtained from seeds, were grown at totally controlled conditions in a growing chamber. Healthy and untreated Pepper plants were used at least two months after seeding to get leaf disks suitable to be exposed to Aphis gossypii adults.\nThe aphids' adults were obtained from mass rearing; aphids were reared on cucumber and zucchini plants under controlled environmental conditions.\nSuitable leaves were collected from pepper plants. Leaf disks were prepared together with arenas containing a layer of water agar on the base. 8 leaf disks per treatment were obtained from the collected leaves and 20 adults/arena were inoculated.\nEach arena was sprayed, using an electric low pressure hand sprayer, with the corresponding insecticide mixture. Tween 80 surfactant, at the rate of 0.05% was added in each treatment mixture.\nThe untreated check was sprayed with distilled water together with Tween 80 surfactant at a dose of 0.05%.\nThe experimental arenas were kept in a growth chamber under controlled climatic conditions: 21° C. (±0.5), 60% RH and 16:8 light:dark photoperiod regime. The assessment of mortality (as % of died adults+progeny) was performed according to the characteristics of each Active Ingredient.\nGarlic extract a) and the additional pesticide b) were priorly calibrated to obtain the Dose Response Curve and the Lethal Dose (ppm) values; according to the calibrations the mixing protocols were obtained at the proper mixing ratios.\nAll the statistical procedures [Student-Newman-Keuls (SNK), Dose response analysis (Probit, confidence level 95%) Anova and other calculation analysis] were performed using the ARM 2020.0 software.\nThe evaluation of Synergy or Antagonism of the two active ingredients was performed by using the Colby's formula, above described: […]\nin which E represents the expected percentage of insecticidal control for the combination of the two insecticides at defined doses, A is the percentage of insecticidal control observed by the compound (I) at a defined dose (for example, a), B is the percentage of insecticidal control observed by the compound (II) at a defined dose (for example, b). When the ratio between the observed percentage of insecticidal control for the combination of the two insecticides at defined doses and the expected percentage of insecticidal control for the combination of the two insecticides at defined doses is greater than 1.15, the effect is synergistic.", "key": {"[1]": {"conditions": "Aphis gossypii, foliar, alone, read-out: Mortality Observed"}, "[2]": {"conditions": "Aphis gossypii, foliar, read-out: Mortality Observed, alone, 1 ppm ai"}, "[3]": {"conditions": "Aphis gossypii, foliar, alone, 1 ppm ai, read-out: Mortality Observed"}, "[4]": {"conditions": "Aphis gossypii, foliar, alone, 2 ppm ai, read-out: Mortality Observed"}}, "note": "Like-named read-outs stand apart in the source and are kept apart here.", "data": [{"smiles": "CC1(C)[C@H](C(=O)O[C@H](C#N)c2cccc(Oc3ccccc3)c2)[C@@H]1/C=C(\\Cl)C(F)(F)F", "note": "(racemic) [Lambda cyhalothrin, lambda-cyhalothrin]", "values": [{"measurement": "mortality at 0.2 ppm", "setting": "[1]", "value": 32.1, "unit": "%"}, {"measurement": "mortality at 0.4 ppm", "setting": "Aphis gossypii, foliar, alone, 0.4 ppm ai, read-out: Mortality Observed", "value": 37.6, "unit": "%"}]}, {"smiles": "C/C(=N\\C#N)N(C)Cc1ccc(Cl)nc1", "note": "[Acetamiprid, acetamiprid]", "values": [{"measurement": "mortality at 0.01 ppm", "setting": "Aphis gossypii, foliar, alone, 0.01 ppm ai, read-out: Mortality Observed", "value": 48.9, "unit": "%"}, {"measurement": "mortality at 0.05 ppm", "setting": "Aphis gossypii, foliar, alone, 0.05 ppm ai, read-out: Mortality Observed", "value": 25, "unit": "%"}, {"measurement": "mortality at 0.1 ppm", "setting": "[1]", "value": 48.9, "unit": "%"}]}, {"smiles": "C[C@]1(COC(=O)C2CC2)[C@@H]2C[C@H](O)[C@@]3(C)Oc4cc(-c5cccnc5)oc(=O)c4[C@H](O)[C@@H]3[C@@]2(C)CC[C@@H]1OC(=O)C1CC1", "note": "[Afidopyropen, afidopyropen]", "values": [{"measurement": "mortality at 0.02 ppm", "setting": "Aphis gossypii, foliar, read-out: Mortality Observed, alone, 0.02 ppm ai", "value": 25.3, "unit": "%"}, {"measurement": "mortality at 1 ppm", "setting": "[2]", "value": 37.3, "unit": "%"}, {"measurement": "mortality at 2 ppm", "setting": "Aphis gossypii, foliar, read-out: Mortality Observed, alone, 2 ppm ai", "value": 49.4, "unit": "%"}]}, {"smiles": "C/C=C(\\C)C(=O)O[C@H]1C[C@@H](OC(C)=O)[C@@]2(C(=O)OC)CO[C@H]3[C@@H](O)[C@@](C)([C@]45O[C@@]4(C)[C@H]4C[C@@H]5O[C@@H]5OC=C[C@@]54O)[C@H]4[C@]1(CO[C@]4(O)C(=O)OC)[C@@H]32", "note": "[Azadirachtin, azadirachtin]", "values": [{"measurement": "mortality at 1 ppm", "setting": "[3]", "value": 22.7, "unit": "%"}, {"measurement": "mortality at 2 ppm", "setting": "[4]", "value": 28.9, "unit": "%"}]}, {"smiles": "FC(F)(F)c1ccc(COc2ncncc2C2OCCCO2)cc1", "note": "[Benzpyrimoxan, benzpyrimoxan]", "values": [{"measurement": "mortality at 0.8 ppm", "setting": "Aphis gossypii, foliar", "value": 8.2, "unit": "%"}, {"measurement": "mortality at 5 ppm", "setting": "Aphis gossypii, foliar", "value": 42, "unit": "%"}]}, {"smiles": "CC(C)c1cc(Oc2ccccc2)cc(C(C)C)c1NC(=S)NC(C)(C)C", "note": "[Diafenthiuron, diafenthiuron]", "values": [{"measurement": "mortality at 1 ppm", "setting": "[2]", "value": 22.7, "unit": "%"}, {"measurement": "mortality at 5 ppm", "setting": "Aphis gossypii, foliar", "value": 26, "unit": "%"}, {"measurement": "Mortality Observed", "setting": "alone, 5 ppm ai", "value": 26.22, "unit": "%"}]}, {"smiles": "N#Cc1nn(-c2c(Cl)cc(C(F)(F)F)cc2Cl)c(N)c1[S+]([O-])C(F)(F)F", "note": "(stereo not shown) [Fipronil, fipronil]", "values": [{"measurement": "mortality at 0.1 ppm", "setting": "[1]", "value": 35, "unit": "%"}, {"measurement": "mortality at 0.5 ppm", "setting": "Aphis gossypii, foliar, alone, 0.5 ppm ai, read-out: Mortality Observed", "value": 43.2, "unit": "%"}]}, {"smiles": "N#CCNC(=O)c1cnccc1C(F)(F)F", "note": "[Flonicamid, flonicamid]", "values": [{"measurement": "Mortality Observed", "setting": "alone, 1 ppm ai", "value": 31.4, "unit": "%"}, {"measurement": "Mortality Observed", "setting": "alone, 2 ppm ai", "value": 27.2, "unit": "%"}]}, {"smiles": "CC(=O)N1C(=O)N(NCc2cccnc2)Cc2cc(C(F)(C(F)(F)F)C(F)(F)F)ccc21", "note": "[Pyrifluquinazon, pyrifluquinazon]", "values": [{"measurement": "mortality at 0.08 ppm", "setting": "Aphis gossypii, foliar, read-out: Mortality Observed, alone, 0.08 ppm ai", "value": 24.9, "unit": "%"}, {"measurement": "mortality at 0.5 ppm", "setting": "Aphis gossypii, foliar, read-out: Mortality Observed, alone, 0.5 ppm ai", "value": 42.7, "unit": "%"}, {"measurement": "mortality at 0.8 ppm", "setting": "Aphis gossypii, foliar", "value": 47.6, "unit": "%"}]}, {"smiles": "CCOC(=O)OC1=C(c2cc(C)ccc2C)C(=O)N[C@]12CC[C@@H](OC)CC2", "note": "[Spirotetramat, spirotetramat]", "values": [{"measurement": "mortality at 1 ppm", "setting": "[3]", "value": 23.5, "unit": "%"}, {"measurement": "mortality at 2 ppm", "setting": "[4]", "value": 44.4, "unit": "%"}]}, {"smiles": "CC(C)[C@@H](Nc1ccc(C(F)(F)F)cc1Cl)C(=O)OC(C#N)c1cccc(Oc2ccccc2)c1", "note": "(stereo partly shown) [Tau fluvalinate, tau-fluvalinate]", "values": [{"measurement": "mortality at 0.1 ppm", "setting": "[1]", "value": 28.1, "unit": "%"}, {"measurement": "mortality at 0.2 ppm", "setting": "[1]", "value": 47.9, "unit": "%"}]}, {"smiles": "CCc1nn(C)c(C(=O)NCc2ccc(Oc3ccc(C)cc3)cc2)c1Cl", "note": "[Tolfenpyrad, tolfenpyrad]", "values": [{"measurement": "mortality at 0.2 ppm", "setting": "[1]", "value": 15.9, "unit": "%"}, {"measurement": "mortality at 1 ppm", "setting": "[3]", "value": 39.3, "unit": "%"}]}]}
